Data published in ChEMBL document CHEMBL5725708, “Amide derivatives and pharmaceutically acceptable salts thereof, preparation method thereof and medicinal application thereof” (2018).

Target: T1, Prostaglandin E synthase (Homo sapiens, UniProt O14684)
T1 sequence (O14684 whole entry): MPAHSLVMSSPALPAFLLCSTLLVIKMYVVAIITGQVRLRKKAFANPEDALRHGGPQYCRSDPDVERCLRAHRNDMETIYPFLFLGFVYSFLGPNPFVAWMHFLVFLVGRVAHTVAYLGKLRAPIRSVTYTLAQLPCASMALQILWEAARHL
Assay: mPGES1 enzyme assay: mPGES1 was diluted with assay buffer and added into plate at 49 μL/well supplemented with 1 μL of compound (the final concentration of each compound at seven gradient concentrations was 10000 nM, 1000 nM, 100 nM, 10 nM, 1 nM, 0.1 nM and 0.01 nM). Each well was added with 3.8 μL of 20 μg/mL PGH precooled on ice after shaking for 30 seconds and incubated for 7 minutes on ice. Then, each well was added with 53.8 μL of 6 mg/mL SnCl2 to quench the reaction. The sample was diluted with dilute buffer at 1:400. 10 μl of diluted sample, 5 μL PGE2-d2 and 5 μL anti-PGE2 Cryptate were added to a black 384-well plate, and incubated at 4° C. overnight. HTRF was determined using Flexstation, and the IC50 of the compounds was obtained by data processing software.

SMILES: CCn1c(-c2ccc(F)cc2)cc2cc(NC(=O)c3cc(CNC(=O)C(C)(C)C)ccc3Br)ccc21
- IC50: 6.02 nM
